# Measurements: patent US8614246B2, “Indole derivatives for treating neurodegenerative diseases” (Centre National de la Recherche Scientifique (CNRS), priority 2009, dated 2013)
# Legend:
# [1] = system: reactive oxygen species (ROS) in neurones of ventral mesencephalon cultures; experiment: Cellular test with dihydrorhodamine 123 (DHR-123); type: cell-based, rat; details: compounds 10 nM for eight days, 50 μM DHR-123 30 minutes; control = 100; Trolox at 10 μM per FIG. 1
# Protocol: Dihydrorhodamine 123 or DHR123 is used as an indicator of reactive oxygen species (ROS). It is uncharged and not fluorescent and passes passively through the cellular membrane before being oxidised in contact with free radicals, into rhodamine 123 emitting green fluorescence.
# The quantity of intracellular ROS is reduced when the cells are treated by an anti-oxidant. This reduction results in a quantifiable decay in emitted fluorescence in the presence of DHR123.
# In order to conclude the role of the anti-oxidant capacity of compounds according to the invention in the observed neuroprotectrive activity, the cultures were placed strictly under the same conditions as for the neuroprotection/neuritogenesis test. Thus, the cultures were kept for eight days in the presence of a concentration of 10 nM of each of the tested tryptaminic derivatives. On the 8th day in vitro (DIV 8), 50 μM of DHR-123 (Sigma) was added and the cells were incubated for 30 minutes at 37° C. They were then washed three times, treated once again by compounds according to the invention and placed in a medium without any phenol red. Living fluorescent neurones that were immediately photographed can be observed, the fluorescence density per neurone being quantified under an inverted fluorescence microscope by an image analysis software.
# [2] = system: dopaminergic neurons (TH+ neurons) in primary cultures of ventral mesencephalon; experiment: Neuritogenesis: total neuritic length per dopaminergic neuron in primary cultures of ventral mesencephalon; type: cell-based; details: Product 10 nM, 8 days culture, rat embryo ventral mesencephalon; untreated control = 100
# Protocol: (§1) Dissection. Dissection consists of extracting embryos from the uterus of a rat after fifteen days of gestation. The brain of each embryo is then dissected under magnifying binoculars in order to extract the ventral mesencephalus.
# (§2) Seeding. Mesencephalons are grouped in a flask containing 2 mL of L15 medium and then mechanically dissociated (30 repeat operations), 5 mL of L15 medium are added. The suspension is allowed to stand for 8 minutes. The 5 mL float is then recovered in a new flask and the cells are dissociated again (30 repeat operations). 5 mL of L15 is added again and the suspension is left to stand for 8 minutes. The 5 mL float is added to the previous float. The cells thus extracted are then centrifuged for 5 minutes at 1000 rpm^−1. The cell sediment is dissolved in a Neurobasal medium supplemented with 1% of B27, 1% of glutamine and 1% of a mixture of penicillin and streptomycin. The cells are then seeded at an appropriate dilution (0.6 embryos per well in 24-well plates and 0.4 per well in 48-well plates). The cultures are incubated at 37° C. in a wet atmosphere enriched with 5% CO2 in 24-well or 48-well plates.
# (§3) Treatment. After 24 hours, two-thirds of the medium in each well is replaced by a new medium enriched with the product to be tested at the appropriate dilution. The medium is replaced in the same way after 4 days of culture.
# (§4) Immunohistochemistry. After 8 days culture, the cells are fixed by a solution of 4% formaldehyde and then washed three times with PBS. The cells are then submitted to anti-tyrosine hydroxylase (TH) immunohistochemistry, developed by a secondary antibody coupled to a fluorophore emitting in the red (Cy3).
# (§5) Analyses. Neuroprotection is evaluated by counting positive TH neurons with 10 fields per well directly under an inverted fluorescence microscope, reported as a percentage of the untreated control. Experiments are done on three wells per condition. Three independent experiments are done under these conditions. The total neuritic length per cell is calculated using Explora Nova's Neurite Outgrowth software on 60 to 100 neurons photographed independently per condition.
# (§6) Primary cultures of ventral mesencephalon of rat embryos after 15.5 days of gestation under conditions causing spontaneous death of dopaminergic neurons, are maintained in the presence or absence of the compounds to be tested for 8 days. After fixing, the cultures are submitted to immunocytochemistry directed against tyrosine hydroxylase, a specific marker of dopaminergic neurons.
# Neuritogenesis is quantified by measuring the total neuritic length per dopaminergic neuron (neuritic length/TH^+ neuron) using an image analyser on a minimum of sixty photographed neurons per condition (10-30% of all dopaminergic neurons).
# (§7) All experiments were done by comparison with a positive control, dibutyryl-AMP cyclic (db-AMPc) (Mourlevat S. et al. Mol. Pharmacol. 2003, 64 (3), 578-586).
# [3] = system: dopaminergic neurons (TH+ neurons) in primary cultures of ventral mesencephalon; experiment: Neuroprotection: counting of remaining TH+ neurons in primary cultures of ventral mesencephalon (spontaneous death of dopaminergic neurons); type: cell-based; details: Product 10 nM, 8 days culture, rat embryo ventral mesencephalon; untreated control = 100
# Protocol: as §1, §2, §3, §4, §5, §6
# The neuroprotective potential of each compound is then estimated by counting the number of remaining neurons (TH^+ neurons) under a fluorescence microscope. The results for the different treatments are expressed as a percentage of the number of neurons remaining relative to untreated cultures (Control).
# as §7
# [4] = Test with ABTS (anti-oxidant capacity, hydroxyl radicals generated by Fenton's reaction); type: biochemical; details: 30 minutes at ambient temperature, range 10 nM to 1 mM, read-out: IC50 ± SEM (concentration at which 50% of hydroxyl radicals have been reduced) (converted)
# From the text: ABTS or 2,2′-azino-bis-(3-ethylbenzthiazoline-6-sulfonic) acid is a coloured indicator of the presence of hydroxyl radicals in solution. The attack of a hydroxyl radical on ABTS generates the formation of an ATBS^+. cation radical (Equation 1). This coloured entity makes the absorbance (Abs) of the solution equal to 450 nm. ABTS+HO. ? ABTS^+. +HO^− Equation 1
# During the test, hydroxyl radicals are generated by Fenton's reaction in the presence of iron and hydrogen peroxide (Equation 2) H2O2+Fe^2+ ? HO. +HO^−+Fe^3+ Equation 2
# When a radical trap or antioxidant is present in solution, competition with ABTS is set up for reduction of hydroxyl radicals, which reduces the absorbance (Abs) at 450 nm.
# The percentage of hydroxyl radicals converted into hydroxyl ions (% conversion) by the compound of interest may be calculated using Formula 1: […]
# The anti-oxidant capacity of a compound may then be expressed in the form of IC50 that reflects the concentration at which 50% of hydroxyl radicals have been reduced by the tested compound.
# Thus, the compounds to be tested and Trolox® were solubilised in ethanol so as to obtain solutions at 1 mM. We used cascade dilutions to obtain a concentration range varying from 1 mM to 10 nM. 90 μL of a 1:1 water-ethanol mixture was then added onto an ELISA 96-well plate, followed by 15 μL of an aqueous solution of ABTS at 1 mM, 15 μL of an aqueous solution of Fe2SO4 at 0.5 mM, 15 μL of each compound to be tested at different concentrations, and then 15 μl of an aqueous solution of hydrogen peroxide at 100 mM. The mixtures thus obtained were stirred at ambient temperature sheltered from air for 30 minutes, and the value of the absorbance at […] was then measured. The capacity of each compound to reduce hydroxyl radicals is determined by the reduction in absorbance at 450 nm, the control solution being composed of pure ethanol. Therefore, the ABTS test was made in comparison with Trolox®. The same ranges from 10 nm to 1 mM of indoles 1a, 1c, 1g, 1i, 2a, 4c, 2g, 2h and 2i were tested.
structure (smiles),measurement,setting,value
"O=C(CCCCCCCCCCCCCCO)NCCc1c[nH]c2ccccc12 [Compound 1i, N-(2-(1H-indol-3-yl)ethyl)-15-hydroxypentadecanamide]",IF/neurone (%) (fluorescence intensity per neurone),[1],56.5 ± 2.7 %
"CCCCCCCCCCCCCCCC(=O)NCCc1c[nH]c2ccccc12 [Compound 1c, N-(2-(1H-indol-3-yl)ethyl)hexadecanamide]","Neuritic length/TH+ neuron, % relative to control ± SEM",[2],168.6 ± 11.5 %
same,IF/neurone (%) (fluorescence intensity per neurone),[1],55.9 ± 3.0 %
same,"TH+ neurons, % relative to control ± SEM",[3],121.3 ± 3.2 %
"CCCC(=O)Nc1ncnc2c1ncn2[C@@H]1O[C@@H]2COP(=O)(O)O[C@H]2[C@H]1OC(=O)CCC [db-AMPc, dibutyryl-AMP cyclic, reference compound]","Neuritic length/TH+ neuron, % relative to control ± SEM",[2],333.1 ± 8.7 %
same,"TH+ neurons, % relative to control ± SEM",[3],149.9 ± 3.6%
CCCCCCCCCCCCCCCCCCCCNCCc1c[nH]c2ccccc12 [Compound 2f],"Neuritic length/TH+ neuron, % relative to control ± SEM",[2],132.6 ± 6.2 %
same,"TH+ neurons, % relative to control ± SEM",[3],128.9 ± 3.4 %
"CCCCCCCCCCCCCCCCCCCCCCCNCCc1c[nH]c2ccccc12 [Compound 2g, N-(2-(1 H-indol-3-yl)ethyl)tricosan-1-amine]",IC50,[4],670 µM
same,"Neuritic length/TH+ neuron, % relative to control ± SEM",[2],141.2 ± 5.0 %
same,"TH+ neurons, % relative to control ± SEM",[3],129.6 ± 3.5 %
"CCCCCCCCCCCCCCCCCCCC(=O)NCCc1c[nH]c2ccccc12 [Compound 1f, N-(2-(1H-indol-3-yl)ethyl)icosanamide]","Neuritic length/TH+ neuron, % relative to control ± SEM",[2],147.4 ± 7.0 %
same,"TH+ neurons, % relative to control ± SEM",[3],121.8 ± 2.0 %
"OCCCCCCCCCCCCCCCNCCc1c[nH]c2ccccc12 [Compound 2i, N-(2-(1H-indol-3-yl)ethyl)-15-hydroxypentadecanamine]",IC50,[4],730 ± 10 µM
same,"Neuritic length/TH+ neuron, % relative to control ± SEM",[2],160.8 ± 13.8 %
same,IF/neurone (%) (fluorescence intensity per neurone),[1],44.0 ± 3.6 %
same,"TH+ neurons, % relative to control ± SEM",[3],129.4 ± 5.0 %
"Cc1c(C)c2c(c(C)c1O)CCC(C)(C(=O)O)O2 (stereo not shown) [Trolox ®, reference compound]",IC50,[4],550 ± 20 µM
same,IF/neurone (%) (fluorescence intensity per neurone),[1],44.0 ± 2.8 %
"CCCCCCCCCCCCCCCCCCNCCc1c[nH]c2ccccc12 [Compound 2e, N-(2-(1H-indol-3-yl)ethyl)octadecan-1-amine]","Neuritic length/TH+ neuron, % relative to control ± SEM",[2],157.3 ± 10.3 %
same,"TH+ neurons, % relative to control ± SEM",[3],129.9 ± 3.5 %
"CCCCCCCCCCCCCNCCc1c[nH]c2ccccc12 [Compound 2a, N-(2-(1H-indol-3-yl)ethyl)tridecan-1-amine]",IC50,[4],810 ± 140 µM
